From PubChem BioAssay AID2696 (Johns Hopkins Ion Channel Center, 2010)

target: Short transient receptor potential channel 6 (Mus musculus) (UniProt Q61143); experiment: TRPC6 inhibitor potency, dose response, cell-based, mouse TRPC6, HEK293, membrane potential (AID 2696); settings: TRPC6-expressing HEK293 cells, membrane potential dye fluorescence, acetylcholine-stimulated
Sequence (Q61143 whole entry, looked up): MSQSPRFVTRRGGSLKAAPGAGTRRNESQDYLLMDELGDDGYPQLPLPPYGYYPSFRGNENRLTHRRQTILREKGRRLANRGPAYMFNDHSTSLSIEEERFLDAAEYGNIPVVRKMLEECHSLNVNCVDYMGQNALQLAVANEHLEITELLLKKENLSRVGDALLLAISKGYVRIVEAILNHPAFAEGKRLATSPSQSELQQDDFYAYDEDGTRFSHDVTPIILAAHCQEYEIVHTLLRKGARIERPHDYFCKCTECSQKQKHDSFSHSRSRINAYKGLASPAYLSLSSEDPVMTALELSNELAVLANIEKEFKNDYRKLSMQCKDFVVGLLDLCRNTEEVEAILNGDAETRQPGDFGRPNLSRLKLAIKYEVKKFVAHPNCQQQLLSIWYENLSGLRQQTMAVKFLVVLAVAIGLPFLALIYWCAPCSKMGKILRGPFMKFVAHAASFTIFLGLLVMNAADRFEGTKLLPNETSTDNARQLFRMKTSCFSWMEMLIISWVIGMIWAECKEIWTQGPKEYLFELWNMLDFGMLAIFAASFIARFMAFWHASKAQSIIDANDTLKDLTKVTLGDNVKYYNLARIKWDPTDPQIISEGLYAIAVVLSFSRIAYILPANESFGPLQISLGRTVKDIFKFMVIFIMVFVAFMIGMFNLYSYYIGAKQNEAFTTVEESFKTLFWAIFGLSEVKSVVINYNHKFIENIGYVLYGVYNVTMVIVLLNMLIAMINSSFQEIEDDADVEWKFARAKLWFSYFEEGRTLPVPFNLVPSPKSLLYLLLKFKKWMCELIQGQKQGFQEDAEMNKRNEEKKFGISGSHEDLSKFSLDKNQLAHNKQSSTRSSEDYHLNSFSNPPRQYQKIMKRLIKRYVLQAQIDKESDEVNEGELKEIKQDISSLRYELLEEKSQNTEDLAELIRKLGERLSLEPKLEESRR

SMILES	IC50 [µM]
CC[N+](C)(C)CC/C=C1/c2ccccc2Sc2ccc(Cl)cc21	1.58
O=C(Nc1ccccc1)Nc1ncc([N+](=O)[O-])s1	35.5
O=C(c1ccc2c(=O)n3c(nc2c1)CCCCC3)N1CCN(C(c2ccccc2)c2ccccc2)CC1	19.9
CCSc1ccc2cc(OC)ccc2[n+]1CC	50.1
Nc1c2c(nc3ccn(Cc4ccccc4)c(=O)c13)CCC2	70.8
CC(C)CC1CCCCC1OC(=O)C[N+]1(C)CCCCC1 (stereo not given)	15.8
Nc1ccc(C(=O)OCc2nc3ccccc3s2)cc1	79.4
CC[n+]1c(/C=C/Nc2ccccc2)sc2ccccc21	79.4
NCCCn1c(C(=O)c2ccc(Cl)cc2)c2ccc(C(F)(F)F)cc2[n+]1[O-]	44.7
CCC(CO)(C(=O)OC1C[N+]2(C)CCC1CC2)c1ccccc1 (stereo not given)	1.58
CCCc1cc(-c2[nH]ncc2-c2ccc3c(c2)OCCCO3)c(O)cc1O	50.1
Cc1cc(C)n(-c2nc(NCCCN(C)C)c3c4c(sc3n2)CCCC4)n1	44.7
CCCCCOc1ccc(CSC(=N)N)cc1[N+](=O)[O-]	79.4
CCCN(CC1CC1)C(=O)CCc1nnc(CCc2c[nH]c3ccccc23)o1	50.1
COC(=O)c1ccc(NC(=O)c2snnc2-c2ccccc2)cc1	39.8
O=C(c1ccccc1)N1CCN(C2C3CC4CC(C3)CC2C4)CC1 (stereo not given)	44.7
CCN(CC)CCOC(=O)C1c2ccccc2Oc2ccccc21	1.78
Cc1ccc(C(OCC(C)(C)C[N+](C)(C)C)c2ccccc2)cc1 (stereo not given)	44.7
Cc1cccc(OCc2nnc(SCc3cc(=O)n4cc(Br)ccc4n3)o2)c1	70.8
CN1C2CCC1CC(OC(c1ccccc1)c1ccccc1)C2 (stereo not given)	0.32
CN(C)CCOc1nc(-c2ccccc2)nc2c1oc1ccccc12	70.8
Cc1onc(-c2ccccc2)c1C(=O)N/N=C/c1ccc([N+](=O)[O-])s1	39.8

SMILES	IC50 [µM]
CN(C)c1ccc(C2N(C)C(=O)c3ccccc3N2C)cc1 (stereo not given)	79.4
Cc1ccc(C)c(NC(=O)C(NCC(C)(C)N2CCOCC2)c2ccccc2)c1 (stereo not given)	25.1
c1ccc(Cn2c(-c3ccccc3)c[n+]3c2SCCC3)cc1	3.98
Cc1cc(C)c2nc(C)cc(Nc3ccc(C(=O)N4CCOCC4)cc3)c2c1	79.4
Cc1ccc(C[n+]2c(-c3ccc(C)cc3)cc(-c3ccc(C)cc3)cc2-c2ccc(C)cc2)cc1	79.4
CCN(CC)CCNC(=O)c1ccc(NC(=O)c2cccc(S(=O)(=O)Nc3ccc(C)cc3)c2)cc1	31.6
CN(CC#CC(O)(c1ccccc1)c1ccccc1)C(C)(C)C	12.6
COCCCNC(=S)N1CCCN(c2nc3cc(C)ccc3cc2C#N)CC1	39.8
COc1ccccc1OCCNCC(O)COc1cccc2[nH]c3ccccc3c12 (stereo not given)	44.7
CC(/C=N/n1c(-c2n[nH]c3c2CCC3)n[nH]c1=S)=C\c1ccco1	8.91
CCN(CC)CC(=O)Nc1ccc(-c2nc3cc(NC(=O)CN(CC)CC)ccc3o2)cc1	79.4
O=C(NC(Nc1ncc(S(=O)(=O)c2ccc([N+](=O)[O-])cc2)s1)(C(F)(F)F)C(F)(F)F)c1ccc(Cl)cc1	44.7
Oc1ccccc1Oc1ncc(Br)c(N2CCOCC2)n1	39.8
COc1ccc2ccccc2c1CNCc1ccc(C)cc1	44.7
C[N+]1(CCOC(=O)C2(c3ccccc3)CCCC2)CCCCC1	15.8
O=C1c2ccccc2-c2onc3c(N4CCN(CCO)CC4)cc(N4CCN(C(=O)c5ccco5)CC4)c1c23	79.4
Cc1cc(C)n(-c2nc(SCCN(C)C)c3c4c(sc3n2)COC(C)(C)C4)n1	79.4
N=c1c(C(=O)NCCN2CCOCC2)cc2c(=O)n3ccccc3nc2n1CCc1ccccc1	50.1
CCCCCC[N+](C)(C)CC/C=C1/c2ccccc2Sc2ccc(Cl)cc21	12.6
C=C(C)c1cccc(C(C)(C)NC(=O)NCCN(CC)CC)c1	28.2
Clc1ccc2c(N3CCCC3)ccnc2c1	56.2
O=C(NNS(=O)(=O)c1ccc(Cl)cc1)C1CCN(Cc2ccccc2)CC1	35.5

SMILES	IC50 [µM]
CCCC[n+]1ccc(-c2nc3ccc([N+](=O)[O-])cc3[nH]2)cc1	56.2
CCN1CCN(c2nc3ccccc3nc2C(C#N)C(=O)OCc2ccccc2)CC1 (stereo not given)	70.8
O=C(c1ccc(C(F)(F)F)cc1)C1CCCN(C2CCSCC2)C1 (stereo not given)	39.8
CC(C)Cn1c(=O)c(C(=O)Nc2ccncc2)c(O)c2ccccc21	3.16
CC(O)CNCCNCc1c(OCc2ccccc2)ccc2ccccc12 (stereo not given)	44.7
COc1ccc(Cl)cc1Nc1nc(N)c2ccccc2n1	31.6
Cc1ccc(C(=O)OCCc2sc[n+](Cc3ccccc3)c2C)cc1	17.8
O=C1c2cccc3cccc(c23)C(=O)N1CC1CCN(CC(O)COCc2ccc3c(c2)OCO3)CC1 (stereo not given)	50.1
O=C(CSc1ncccn1)N1CCN(C(c2ccccc2)c2ccccc2)CC1	50.1
CCOC(=O)c1nc2cc3n(c(C)c-2c1C)C(C)C(C)=C3C (stereo not given)	44.7
Cc1cccc2sc(N(CCCN(C)C)C(=O)c3ccco3)nc12	70.8
COc1ccc(C(=O)C2CCCN(Cc3cccn3-c3ccccn3)C2)cc1F (stereo not given)	79.4
C#CC[N+]1(C)[C@@H]2CC[C@H]1CC(OC(=O)C(CO)c1ccccc1)C2 (stereo not given in full)	0.28
Cc1cccc(NS(=O)(=O)c2cccc(C(=O)N3CCN(c4ccccn4)CC3)c2)c1	50.1
CN(C)CCC(=O)N1c2ccccc2Sc2ccc(Cl)cc21	8.91
Clc1ccc(C(c2ccccc2)N2CCNCC2)cc1 (stereo not given)	50.1
O=S(=O)(Nc1nc2ccccc2[nH]1)c1ccc(Cl)cc1	7.08
CCN(CC)CCCOC(=O)C(c1ccccc1)c1ccccc1	3.16
CC[N+](C)(CC)CCOC(=O)C(O)(c1ccccc1)C1CCCCC1 (stereo not given)	0.79
O=C(c1ccc(C(=O)N2CCCc3ccccc32)s1)N1CCCc2ccccc21	44.7
CN(C)CCCOC(=O)C1c2ccccc2Oc2ccccc21	6.31
CN(C)CCNc1c2c(c(C#N)c3nc4ccccc4n13)CCCC2	79.4

SMILES	IC50 [µM]
Cc1ccc(C)c(Nc2nc(N)c3ccccc3n2)c1	19.9
Nc1c2c(nc3ccccc13)N(C1CCCCC1)CC2	70.8
CN(C)CCOC(=O)C1(c2ccccc2)CCCC1	44.7
Cc1c(Cl)cccc1Nc1nc(NCCO)c2ccccc2n1	79.4
CCN(CC)CCSc1nnc(Nc2ccccc2)n1-c1ccccc1	44.7
O=[N+]([O-])c1ccc(N=Nc2c(Cl)cc(O)cc2Cl)cc1	25.1
CN(C)CCCNc1nc(-c2ccccc2)nc2ccccc12	79.4
Cc1cc(C)nc(/N=C(\N)N(Cc2ccccc2)Cc2ccccc2)n1	28.2
CN(C)CCOC1c2ccccc2CSc2ccccc21 (stereo not given)	12.6
CC(C)C(O)(C#CCN1CCCCCC1)c1ccccc1 (stereo not given)	44.7
C[N+]1(C)[C@@H]2CC(OC(=O)[C@H](CO)c3ccccc3)C[C@H]1[C@@H]1O[C@@H]12 (stereo not given in full)	0.03
CCOC(=O)c1cnc2c(C)cccc2c1NCCCN1CCOCC1	44.7
Cn1c2c(c(=O)n(C)c1=O)C(C(F)(F)F)(C(F)(F)F)N=C(c1ccc(Cl)cc1)N2	7.94
CCCn1c(=N)c(C(=O)NC2CCCC2)cc2c(=O)n3cccc(C)c3nc21	44.7
CCCc1ncc(C(O)(c2ccccc2)c2ccccc2)n1C	39.8
CN1CCN(c2ncccc2S(=O)(=O)N2CCCCC2)CC1	11.2
CN1CCCN=C1COC(=O)C(O)(c1ccccc1)C1CCCCC1 (stereo not given)	0.05
Cc1c(C(=O)OC(C)CCN(C)C)oc2ccccc12 (stereo not given)	14.1
CCOC(=O)c1cn(C2CC2)c2c(F)c(NCCCN(C)C)c(F)cc2c1=O	70.8
